Reference: ChEMBL document CHEMBL3243921, “2-Pyrrolidinylideneureas, a new class of central nervous system agents” (J Med Chem, 1978)
Active and inactive are the calls of the source.

Experiments:
Mus musculus [1] = assay: Sedative activity in mouse assessed as increase in pentylenetetrazol-induced pseudo-convulsive threshold at 25 to 200 mg/kg, po; assay type: functional, organism-based
Mus musculus [2] = assay: Acute toxicity in po dosed mouse assessed as concentration required to produce 50% loss of righting reflex administered as qd for 4 days measured for 1 min post last dose; assay type: organism-based; settings: in vivo
[3] = Therapeutic index, ratio of PD50 for acute toxicity in po dosed mouse assessed as concentration required to produce 50% loss of righting reflex to MED causing antianxiety activity in ip dosed rat assessed as effect on increase in punished responses; assay type: organism-based; settings: in vivo, other: oral (PD50, mouse) and intraperitoneal (MED, rat), read-out: TI
[4] = Acute toxicity in po dosed mouse assessed as mortality administered as qd for 6 days measured on day 7 post last dose; assay type: organism-based; settings: in vivo
Mus musculus [5] = assay: Muscle relaxant activity in po dosed mouse assessed as increase in strychnine-induced persistant convulsive threshold; assay type: functional
[6] = Ratio of LD50 for po dosed mouse to PD50 for acute toxicity in po dosed mouse assessed as concentration required to produce 50% loss of righting reflex; assay type: organism-based; settings: in vivo
Rattus norvegicus = assay: Antianxiety activity in ip dosed rat assessed as effect on increase in punished responses administered qd for 5 days measured every day for 5 days; assay type: functional; settings: for minimal effective dose: 120 h, read-out: MED
Mus musculus [7] = assay: Muscle relaxant activity in po dosed mouse assessed as blockade of pentylenetetrazol-induced tonic extensor seizure; assay type: functional
Mus musculus [8] = assay: Anticonvulsant activity in po dosed mouse assessed as blockade of supramaximal electroshock-induced […] seizure; assay type: functional
Mus musculus [9] = assay: Potency index, ratio of methocarbamol MED20 to compound MED20 for muscle relaxant activity in po dosed mouse assessed as blockade of pentylenetetrazol-induced tonic extensor seizure; assay type: functional
Mus musculus [10] = assay: Sedative activity in mouse assessed as increase in pentylenetetrazol-induced pseudo-convulsive threshold up to 200 mg/kg, po; assay type: functional, organism-based; set-up: dose 200 mg/kg
Mus musculus [11] = assay: Potency index, ratio of chlorzoxazone MED20 to compound MED20 for muscle relaxant activity in po dosed mouse assessed as blockade of pentylenetetrazol-induced tonic extensor seizure; assay type: functional
Mus musculus [12] = assay: Blockade of pentylenetetrazol-induced lethality in mouse assessed as delay in occurrence of death time up to 200 mg/kg, po; assay type: functional
[13] = Therapeutic index, ratio of PD50 for acute toxicity in po dosed mouse assessed as concentration required to produce 50% loss of righting reflex to MED25 for muscle relaxant activity in po dosed mouse assessed as increase in strychnine-induced persistant convulsive threshold; assay type: organism-based; settings: in vivo, read-out: TI
Mus musculus [14] = assay: Hypnotic activity in mouse assessed as increase in pentylenetetrazol-induced persistent-convulsive threshold up to 200 mg/kg, po; assay type: functional, organism-based; set-up: dose 200 mg/kg
Mus musculus [15] = assay: Potency index, ratio of methocarbamol MED20 to compound MED20 for anticonvulsant activity in po dosed mouse assessed as blockade of supramaximal electroshock-induced […] seizure; assay type: functional
Mus musculus [16] = assay: Potency index, ratio of chlorzoxazone MED20 to compound MED20 for anticonvulsant activity in po dosed mouse assessed as blockade of supramaximal electroshock-induced […] seizure; assay type: functional
Mus musculus [17] = assay: Sedative-hypnotic activity in po dosed mouse assessed as increase in pentylenetetrazol-induced persistent-convulsive threshold; assay type: functional, organism-based
Mus musculus [18] = assay: Sedative-hypnotic activity in mouse assessed as increase in pentylenetetrazol-induced pseudo/persistent-convulsive threshold at 50 to 200 mg/kg, po; assay type: functional, organism-based
Mus musculus [19] = assay: Hypnotic activity in po dosed mouse assessed as increase in pentylenetetrazol-induced persistent-convulsive threshold; assay type: functional, organism-based

Row | SMILES | PD50 (Mus musculus [2]) [mg/kg] | LD50 at 144 h [4] [mg/kg] | MED25 (Mus musculus [5]) [mg/kg] | selectivity ratio [6] | minimal effective dose (Rattus norvegicus) [mg/kg] | MED20 (Mus musculus [7]) [mg/kg] | MED20 (Mus musculus [8]) [mg/kg] | Activity (Mus musculus [17]) | Activity (Mus musculus [5]) | Activity (Rattus norvegicus) | Activity (Mus musculus [7]) | Activity (Mus musculus [19]) | Activity (Mus musculus [8]) | further results
1 | CN1CCC/C1=N\C(=O)Nc1cccc(Br)c1 | 1430 | 1580 | 58 | 1.1 | 25 | 52 | 180 | – | – | – | – | – | – | Activity (Mus musculus [1]): Active; selectivity ratio [3]: 57
2 | CCc1cccc(CC)c1NC(=O)/N=C1\CCCN1C | 161 | 370 | 120 | 2.3 | > 25 | 16 | 64 | – | – | – | – | – | – | Ratio (Mus musculus [9]): 4; Activity (Mus musculus [10]): inactive; Ratio (Mus musculus [11]): 4; Time (Mus musculus [12]): 1 min; selectivity ratio [13]: 1.3; Activity (Mus musculus [14]): inactive
3 | Cc1cccc(C)c1NC(=O)/N=C1\CCCN1C [XILOBAM] | 230 | – | 26 | – | > 25 | 22 | 27 | – | – | – | – | – | – | Activity (Mus musculus [10]): inactive; Activity (Mus musculus [14]): inactive
4 | CN1CCC/C1=N\C(=O)Nc1c(Br)cccc1Br | 350 | 560 | 50 | 1.6 | > 25 | 25 | 74 | – | – | – | – | – | – | Ratio (Mus musculus [9]): 4; Activity (Mus musculus [10]): inactive; Ratio (Mus musculus [11]): 4; Time (Mus musculus [12]): 1 min; selectivity ratio [13]: 7; Activity (Mus musculus [14]): inactive
5 | CN1CCC/C1=N\C(=O)Nc1c(Cl)cccc1Cl | 320 | 565 | 64 | 1.8 | > 25 | 25 | 58 | – | – | – | – | – | – | Ratio (Mus musculus [9]): 4; Activity (Mus musculus [10]): inactive; Ratio (Mus musculus [11]): 4; Time (Mus musculus [12]): 1 min; selectivity ratio [13]: 5; Activity (Mus musculus [14]): inactive
6 | CN1CCC/C1=N\C(=O)Nc1cccc(I)c1 | > 820 | > 1000 | 86 | – | > 25 | 36 | 112 | – | – | – | – | – | – | –
7 | CCc1cccc(C)c1NC(=O)/N=C1\CCCN1C | – | 650 | 96 | – | – | 20 | 36 | – | – | – | – | – | – | Ratio (Mus musculus [9]): 4; Activity (Mus musculus [10]): inactive; Ratio (Mus musculus [15]): 3; Ratio (Mus musculus [11]): 4; Ratio (Mus musculus [16]): 3; Time (Mus musculus [12]): 1 min; Activity (Mus musculus [14]): inactive
8 | CCC1(c2ccccc2)C(=O)NC(=O)NC1=O [PHENOBARBITAL] | – | – | – | 3 | – | – | – | – | – | – | – | – | – | –
9 | CN1CCC/C1=N\C(=O)Nc1ccccc1 | 220 | 215 | 35 | 1 | 15 | 40 | >100 | – | – | – | – | – | – | Activity (Mus musculus [1]): Active; selectivity ratio [3]: 15
10 | COc1cccc(OC)c1NC(=O)/N=C1\CCCN1C | 460 | 650 | >200 | 1.4 | > 25 | 62 | 80 | – | – | – | – | – | – | Activity (Mus musculus [10]): inactive; Time (Mus musculus [12]): 1 min; Activity (Mus musculus [14]): inactive
11 | COc1cccc(NC(=O)/N=C2\CCC(C)N2C)c1 (stereo not drawn) | 680 | 1900 | 160 | 1.5 | > 25 | 68 | 135 | – | – | – | – | – | – | –
12 | Cc1cccc(NC(=O)/N=C2\CCCN2C)c1 | 825 | 850 | >200 | 1 | 25 | 25 | 76 | – | – | – | – | – | – | Activity (Mus musculus [1]): Active; selectivity ratio [3]: 33
13 | CCN1CCC/C1=N\C(=O)Nc1cccc(Cl)c1 | 1307 | 1700 | 137 | 1.2 | 15 | 60 | 200 | Active | – | – | – | – | – | selectivity ratio [3]: 58; Activity (Mus musculus [18]): Active
14 | Cc1cccc(C)c1NC(=O)/N=C1\CCCCCN1C | – | – | – | – | – | – | – | inactive | inactive | inactive | inactive | inactive | inactive | –
15 | CC(C)c1cccc(C(C)C)c1NC(=O)/N=C1\CCCN1C | – | 260 | >200 | – | – | 180 | 165 | – | – | – | – | – | – | Activity (Mus musculus [10]): inactive; Time (Mus musculus [12]): 1 min; Activity (Mus musculus [14]): inactive
16 | Cc1ccccc1NC(=O)/N=C1\CCCN1C | – | – | – | – | – | – | – | Active | Active | Active | Active | Active | Active | –
17 | CCCCN1CCC/C1=N\C(=O)Nc1c(C)cccc1C | – | – | – | – | – | – | – | inactive | inactive | inactive | inactive | inactive | inactive | –
18 | CC1/C(=N\C(=O)Nc2c(Cl)cccc2Cl)N(C)CC1c1ccccc1 (stereo not drawn) | – | – | – | – | – | – | – | inactive | inactive | inactive | inactive | inactive | inactive | –
19 | Cc1cccc(C)c1NC(=O)/N=C1\C(C)C(c2ccccc2)CN1C (stereo not drawn) | – | – | – | – | – | – | – | inactive | inactive | inactive | inactive | inactive | inactive | –
20 | CN1CCC/C1=N\C(=O)Nc1cccc(F)c1 | 500 | 525 | 210 | 1 | 25 | 38 | 200 | – | – | – | – | – | – | selectivity ratio [3]: 20
21 | O=C(/N=C1\CCCN1Cc1ccccc1)Nc1c(Cl)cccc1Cl | – | – | – | – | – | – | – | inactive | inactive | inactive | inactive | inactive | inactive | –
22 | CN1CCC/C1=N\C(=O)Nc1cccc(C(F)(F)F)c1 | 1000 | > 1000 | 58 | – | > 25 | 47 | 76 | – | – | – | – | – | – | Activity (Mus musculus [1]): Active
23 | O=C(/N=C1\CCCCCN1)Nc1ccccc1 | – | – | – | – | – | – | – | inactive | inactive | inactive | inactive | inactive | inactive | –
24 | COc1cccc(NC(=O)/N=C2\CCCN2C)c1 | 1390 | 1200 | 135 | 1.5 | > 25 | 68 | 135 | – | – | – | – | – | – | Activity (Mus musculus [1]): Active
25 | CN1CCC/C1=N\C(=S)Nc1ccccc1 | – | – | – | – | – | – | – | inactive | inactive | inactive | inactive | inactive | inactive | –
26 | CCCCN1CCC/C1=N\C(=O)Nc1cccc(Cl)c1 | – | – | – | – | – | – | – | inactive | inactive | inactive | inactive | inactive | inactive | –
27 | Cc1cccc(C)c1NC(=O)/N=C1\CCCN1Cc1ccccc1 | – | – | – | – | – | – | – | inactive | inactive | inactive | inactive | inactive | inactive | –
